Some results are limits rather than exact numbers.

The results in this text go back to patent US8466188B2, “Use of spiro-oxindole compounds as therapeutic agents” (Xenon Pharmaceuticals Inc., priority 2006, dated 2013).

By melting point is commonly meant the temperature, or range, at which the solid turns liquid. On to `O=C1N(Cc2ccc(-c3cccc(Cl)c3)o2)c2ccccc2C12COc1cc3c(cc12)OCO3` (stereo not drawn) [Example 10.56, 1′-{[5-(3-chlorophenyl)-2-furyl]methyl}spiro[furo[2,3-f][1,3]benzodioxole-7,3′-indol]-2′(1′H)-one], for which the melting point fell in the range of 205 to 207 °C.
As for `CC1(C)COc2cc3c(cc21)C1(CO3)C(=O)N(Cc2cccnc2)c2ccccc21.Cl` (stereo not drawn), the figure is 124 to 126 °C; as for `CCCCCN1C(=O)C2(COc3cc(F)c(Cl)cc32)c2ccccc21` (stereo not drawn) [Example 1.15, 5-chloro-6-fluoro-1′-pentylspiro[1-benzofuran-3,3′-indol]-2′(1′H)-one], 74 to 76 °C; as for `O=C1Nc2ccccc2C12COc1cc(OC(F)(F)F)ccc12` (stereo not drawn) [Example 1.36, 6-(trifluoromethoxy)spiro[1-benzofuran-3,3′-indol]-2′(1′H)one], 180 to 182 °C.
In turn, `CC1(C)COc2cc3c(cc21)C1(CO3)C(=O)N(C(c2ccccc2)c2ccccc2)c2ccccc21` (stereo not drawn) [Example 1.20, 1′-(diphenylmethyl)-5,5-dimethyl-5,6-dihydrospiro[benzo[1,2-b:5,4-b′]difuran-3,3′-indol]-2′(1′H)-one] had a melting point of 190 to 192 °C.
The compound `CCOC(=O)CN1C(=O)C2(COc3cc(F)c(F)cc32)c2c(Br)cccc21` (stereo not drawn) [Example 1.47, ethyl (4′-bromo-5,6-difluoro-2′-oxospiro[1-benzofuran-3,3′-indol]-1′(2′H)-yl)acetate] returned a melting point of 133 to 134 °C.
`O=C(CN1C(=O)C2(COc3cc(F)c(F)cc32)c2ccccc21)Nc1ccccc1F` (stereo not drawn) [Example 3.9, 2-(5,6-difluoro-2′-oxospiro[1-benzofuran-3,3′-indol]-1′(2′H)-yl)-N-(2-fluorophenyl)acetamide]: the melting point was in the range of 97 to 100 °C.
Consider `CCCCCN1C(=O)C2(COc3cc4c(cc32)OCO4)c2c(Cl)ccc(Cl)c21` (stereo not drawn) [Example 1.22, 4′,7′-dichloro-1′-pentylspiro[furo[2,3-f][1,3]benzodioxole-7,3′-indol]-2′(1′H)-one], for which the melting point fell in the range of 106 to 108 °C.
Turning to `O=C(CN1C(=O)C2(COc3cc4c(cc32)CCO4)c2c(Br)cccc21)Nc1ccccc1F` (stereo not drawn) [Example 3.12, 2-(4′-bromo-2′-oxo-5,6-dihydrospiro[benzo[1,2-b:5,4-b′]difuran-3,3′-indol]-1′(2′H)-yl)-N-(2-fluorophenyl)acetamide], the melting point lay within 245 to 246 °C.
Turning to `CN1C(C)(C)CC(O)(CN2C(=O)C3(COc4cc5c(cc43)OCO5)c3ccccc32)CC1(C)C` (stereo not drawn) [Example 10.63, 1′-[(4-hydroxy-1,2,2,6,6-pentamethylpiperidin-4-yl)methyl]spiro[furo[2,3-f][1,3]benzodioxole-7,3′-indol]-2′(1′H)-one], the melting point was in the range of 210 to 214 °C.
As to `O=C1N(Cc2ccccn2)c2cccc(Br)c2C12COc1cc3c(cc12)CCO3` (stereo not drawn) [Example 1.25, 4′-bromo-1′-(pyridin-2-ylmethyl)-5,6-dihydrospiro[benzo[1,2-b:5,4-b′]difuran-3,3′-indol]-2′(1′H)-one], the melting point is above 200 °C.
`O=C(O)CN1C(=O)C2(COc3cc4c(cc32)CCO4)c2c(Cl)cccc21` (stereo not drawn) [Example 2.2, (4′-chloro-2′-oxo-5,6-dihydrospiro[benzo[1,2-b:5,4-b′]difuran-3,3′-indol]-1′(2′H)-yl)acetic acid] gave a melting point of 228 to 229 °C.
In turn, `O=C(CN1C(=O)C2(COc3cc(Cl)ccc32)c2ccccc21)Nc1ccccc1F` (stereo not drawn) [Example 3.8, 2-(6-chloro-2′-oxospiro[1-benzofuran-3,3′-indol]-1′(2′H)-yl)-N-(2-fluorophenyl)acetamide] yielded a melting point of 70 to 75 °C.
`O=C(CN1C(=O)C2(COc3cc4c(cc32)CCO4)c2cc(Cl)ccc21)Nc1ccccc1F` (stereo not drawn) [Example 3.7, 2-(5′-chloro-2′-oxo-5,6-dihydrospiro[benzo[1,2-b:5,4-b′]difuran-3,3′-indol]-1′(2′H)-yl)-N-(2-fluorophenyl)acetamide] registered a melting point of 229 to 230 °C.
As to `O=C1Nc2ccccc2C12COc1ccc(Br)cc12` (stereo not drawn) [Example 1.34, 5-bromospiro[1-benzofuran-3,3′-indol]-2′(1′H)-one], the melting point was in the range of 225 to 228 °C.
On to `Cl.O=C1N(Cc2ccc(C(F)(F)F)o2)c2ccccc2C12COc1ccc(-c3cccnc3)cc12` (stereo not drawn), for which the melting point was in the range of 98 to 100 °C.
As for `CN(C)c1ccc(CN2C(=O)C3(COc4cc5c(cc43)OCO5)c3ccccc32)cn1.Cl` (stereo not drawn), the figure is 146 to 150 °C; as for `O=C1N(Cc2ccc(=O)[nH]c2)c2ccccc2C12COc1cc3c(cc12)OCO3` (stereo not drawn) [Example 10.82, 1′-[(6-oxo-1,6-dihydropyridin-3-yl)methyl]spiro[furo[2,3-f][1,3]benzodioxole-7,3′-indol]-2′(1′H)-one], 247 to 250 °C; as for `CC1(C)COc2cc3c(cc21)C1(CO3)C(=O)Nc2ccccc21` (stereo not drawn) [Example 1.21, 5,5-dimethyl-5,6-dihydrospiro[benzo[1,2-b:5,4-b′]difuran-3,3′-indol]-2′(1′H)-one], 95 to 100 °C.
Regarding `O=C1N(Cc2ccccn2)c2cccc(-c3ccoc3)c2C12COc1cc3c(cc12)CCO3` (stereo not drawn) [Example 4.9, 4′-(3-furyl)-1′-(pyridin-2-ylmethyl)-5,6-dihydrospiro[benzo[1,2-b:5,4-b′]difuran-3,3′-indol]-2′(1′H)-one], the melting point lay within 195 to 197 °C.
In the case of `O=C1Nc2ccccc2C12COc1cc3c(cc12)OCO3` (stereo not drawn) [Example 1.8, spiro[furo[2,3-f][1,3]benzodioxole-7,3′-indol]-2′(1′H)-one] it was 252 °C (dec.); in that of `CC(C)N1CCC(CCN2C(=O)C3(COc4cc5c(cc43)OCO5)c3ccccc32)CC1.Cl` (stereo not drawn), 155 to 156 °C; in that of `COc1ccc2c(c1)C1(CO2)C(=O)N(C)c2ccccc21` (stereo not drawn) [Example 58, 5-methoxy-1′-methylspiro[1-benzofuran-3,3′-indol]-2′(1′H)one], 159 to 161 °C.
Turning to `CCCN1C(=O)C2(COc3cc4c(cc32)OCO4)c2ccccc21` (stereo not drawn) [Example 10.40, 1′-Propylspiro[furo[2,3-f][1,3]benzodioxole-7,3′-indol]-2′(1′H)-one], the melting point lay in the range of 158 to 160 °C.
Regarding `O=C1N(Cc2ccc(F)cc2Cl)c2ccccc2C12COc1cc3c(cc12)OCO3` (stereo not drawn) [Example 10.30, 1′-(2-chloro-4-fluorobenzyl)spiro[furo[2,3-f][1,3]benzodioxole-7,3′-indol]-2′(1′H)-one], the melting point lay within 174 to 175 °C.
As for `Cl.O=C1N(Cc2ccccn2)c2ccccc2C12COc1cc(OC(F)(F)F)ccc12` (stereo not drawn), the figure is 150 to 152 °C.
In the case of `Cl.O=C1N(Cc2ccccn2)c2ccccc2C12COc1cc3c(cc12)CCO3` (stereo not drawn) it was 208 to 210 °C; in that of `CCCCCN1C(=O)C2(COc3cc(F)c(F)cc32)c2ccccc21` (stereo not drawn) [Example 1.12, 5,6-difluoro-1′-pentylspiro[1-benzofuran-3,3′-indol]-2′(1′H)-one], 48 to 50 °C.
Regarding `CC(C)(C)OC(=O)N1CCC(CCN2C(=O)C3(COc4cc5c(cc43)OCO5)c3ccccc32)CC1` (stereo not drawn) [Example 10.96, tert-butyl 4-[2-(2′-oxospiro[furo[2,3-f][1,3]benzodioxole-7,3′-indol]-1′(2′H)-yl)ethyl]piperidine-1-carboxylate], the melting point is 173 to 175 °C.
As for `O=C1N(Cc2ccc(C(F)(F)F)o2)c2ccccc2C12COc1ccc(Br)cc12` (stereo not drawn) [Example 1.33, 5-bromo-1′-{[5-(trifluoromethyl)-2-furyl]methyl}spiro[1-benzofuran-3,3′-indol]-2′(1′H)-one], the figure is 143 to 145 °C; as for `O=C1N(Cc2nnc(Cl)s2)c2ccccc2C12COc1cc3c(cc12)OCO3` (stereo not drawn) [Example 10.85, 1′-[(5-chloro-1,3,4-thiadiazol-2-yl)methyl]spiro[furo[2,3-f][1,3]benzodioxole-7,3′-indol]-2′(1′H)-one], 194 to 197 °C; as for `O=C(CN1C(=O)C2(COc3cc4c(cc32)CCO4)c2ccccc21)Nc1ccccc1F` (stereo not drawn) [Example 3.13, N-(2-fluorophenyl)-2-(2′-oxo-5,6-dihydrospiro[benzo[1,2-b:5,4-b′]difuran-3,3′-indol]-1′(2′H)-yl)acetamide], 210 to 212 °C.
Take `O=C1N(Cc2ccc(OC(F)(F)F)cc2)c2ccccc2C12COc1cc3c(cc12)OCO3` (stereo not drawn) [Example 10.38, 1′[4-(trifluoromethoxy)benzyl]spiro[furo[2,3-f][1,3]benzodioxole-7,3′-indol]-2′(1′H)-one]: the melting point is 99 to 101 °C.
Consider `O=C1N(Cc2ccc(Cl)o2)c2ccccc2C12COc1cc3c(cc12)OCO3` (stereo not drawn) [Example 10.62, 1′-[(5-chloro-2-furyl)methyl]spiro[furo[2,3-f][1,3]benzodioxole-7,3′-indol]-2′(1′H)-one], for which the melting point was in the range of 148 to 150 °C.
`COC(=O)c1ccccc1CN1C(=O)C2(COc3cc4c(cc32)OCO4)c2ccccc21` (stereo not drawn) [Example 1.4, methyl 2-[(2′-oxospiro[furo[2,3-f][1,3]benzodioxole-7,3′-indol]-1′(2′H)-yl)methyl]benzoate] returned a melting point of 166 to 167 °C.
In turn, `Cc1ccc2c(c1)C1(COc3cc4c(cc31)OCO4)C(=O)N2Cc1ccc(C(F)(F)F)o1` (stereo not drawn) [Example 10.76, 5′-methyl-1′-{[5-(trifluoromethyl)-2-furyl]methyl}spiro[furo[2,3-f][1,3]benzodioxole-7,3′-indol]-2′(1′H)-one] showed a melting point of 96 to 98 °C.
The compound `O=C1N(Cc2nc3cc(F)ccc3[nH]2)c2ccccc2C12COc1cc3c(cc12)OCO3` (stereo not drawn) [Example 53, 1′-[(5-fluoro-1H-benzimidazol-2-yl)methyl]spiro[furo[2,3-f][1,3]benzodioxole-7,3′-indol]-2′(1′H)-one] registered a melting point of 138 to 142 °C.
The compound `COc1cccc2c1C1(COc3cc4c(cc31)OCO4)C(=O)N2Cc1ccc(C(F)(F)F)o1` (stereo not drawn) [Example 1.53, 4′-methoxy-1′{[5-(trifluoromethyl)-2-furyl]methyl}spiro[furo[2,3-f][1,3]benzodioxole-7,3′-indol]-2′(1′H)-one] gave a melting point of 149 to 153 °C.
The compound `COc1ccc(CN2C(=O)C3(COc4cc(OC(F)(F)F)ccc43)c3ccccc32)cc1` (stereo not drawn) [Example 10.91, 1′-(4-methoxybenzyl)-6-(trifluoromethoxy)spiro[1-benzofuran-3,3′-indol]-2′(1′H)-one] showed a melting point of 82 to 84 °C.
